# Assay results from US8349834B2, “Dioxolane derivates for the treatment of cancer” (Clavis Pharma AS, priority 2005, dated 2013).
# Read-outs that look alike come from different tables or passages of the source.
# Experiments:
# [1] = tested on: U937 cells
# Procedure: (§1) The U937 and THP-1 cell lines were seeded, 20 000 cells per well, in 96-well-plates. 50 μl medium ( ) was added to each well. At the same time test compounds were added in 5 different concentrations and incubated for 48 hours. The CellTiter 96® Non-Radioactive cell proliferation assay (Promega) was used to study the cytotoxicity of test in these cells. This assay is a colorimetric method for determining the number of viable cells in proliferation or chemosensitivity assays. […] MTS is bioreduced by cells into a formazan product that is soluble in tissue culture medium. The absorbance of the formazan at 490 nm can be measured directly from 96 well assay plates without additional processing.
# [2] = tested on: THP-1 cells
# Procedure: as §1
# [3] = tested on: U937 cells; assay: CellTiter 96 MTS cytotoxicity in U937 cells; settings: U937, 48 hours; for IC50: read-out: U937 cells IC50 μM ± SD, MTS
# Procedure: as §1
# [4] = tested on: THP-1 cells; assay: CellTiter 96 MTS cytotoxicity in THP-1 cells; settings: THP-1, 48 hours; for IC50: read-out: THP-1 cells IC50 μM ± SD, MTS
# Procedure: as §1
# [5] = tested on: several cell lines; settings: prior art references; cited from earlier work
# [6] = tested on: MaTu/Adr cells; assay: in-vitro activity in breast tumour line MaTu and adriamycin resistant subline MaTu/Adr; type: cell-based; settings: MaTu/Adr vs. MaTu
# [7] = tested on: HeLa/mut cells; assay: MTT growth inhibition in cervical cancer cell line HeLa/mut; type: cell-based, human; settings: for IC50: 4 days incubation, MTT, read-out: IC50 μM ± Standard Deviation
# Procedure: The cervical cancer cell line HeLa/mut was seeded, 5×10^3 cells per well, in 96-well-plates. The medium was RMPI 1640 with 2 mM Glutamine and 10% Foetal Bovine Serum. 24 hours later the test compounds were added in 6 concentrations. The cells were incubated for 4 days. The MTT solution was added to each well and incubated for 4 hours. The samples were read by an ELISA reader at 540 nm. The IC50 values were determined from growth curves. The test compounds were troxacitabine elaidic amid, troxacitabine petroselaidoate, troxacitabine-petroselaidic amide and troxacitabine γ-linolenoate.
SMILES,IC50 [3],IC50 [4],also measured
"CCCCC/C=C\C/C=C\C/C=C\CCCCC(=O)Nc1ccn([C@@H]2CO[C@H](CO)O2)c(=O)n1 [Troxacitabine N^4-6,9,12-linolenic acid amide]",0.007 µM,0.085 µM,cytotoxicity in words [1]: even more active than the other compounds; cytotoxicity in words [2]: even more active than the other compounds
CCCCCCCCCCC/C=C\CCCCC(=O)OC[C@H]1OC[C@@H](n2ccc(N)nc2=O)O1 [Troxacitabine-2′-hydroxymethyl-petroselinoate],0.007 µM,0.09 µM,cytotoxicity in words [3]: even more active than the other compounds; cytotoxicity in words [4]: even more active than the other compounds
"CCCCCCCC/C=C/CCCCCCCC(=O)OC[C@H]1OC[C@@H](n2ccc(N)nc2=O)O1 [Troxacitabine-5′-elaidic acid ester, reference compound]",0.06 µM,0.06 µM,–
"CCCCCCCCC=CCCCCCCCC(=O)OCC1OCC(n2ccc(N)nc2=O)O1 (stereo not drawn) [Troxacitabine-5′-oleate, reference compound]",0.09 µM,0.07 µM,–
CCCCCCCCC=CCCCCCCCC(=O)Nc1ccn(C2COC(CO)O2)c(=O)n1 (stereo not drawn) [oleic acid amid derivative],–,–,times better than the elaidic counterpart [5]: 2 to 5 times
"CCCCCCCC/C=C/CCCCCCCC(=O)Nc1ccn([C@@H]2CO[C@H](CO)O2)c(=O)n1 [troxacitabine elaidic-amide, Troxacitabine N^4-Elaidic Acid Amide]",–,–,resistance factor [6]: 6
"CCCCCCCCCCC/C=C/CCCCC(=O)OC[C@H]1OC[C@@H](n2ccc(N)nc2=O)O1 [troxacitabine petroselaidoate, Troxacitabine-2′-hydroxymethyl-petroselaidoate]",0.08 µM,0.06 µM,IC50 [7]: 0.18 ± 0.12 µM; fold more active than troxacitabine elaidic amid ([7]; relative to troxacitabine elaidic amide): 20 fold
"CCCCC/C=C\C/C=C\C/C=C\CCCCC(=O)OC[C@H]1OC[C@@H](n2ccc(N)nc2=O)O1 [troxacitabine γ-linolenoate, Troxacitabine 2′-hydroxymethyl-6,9,12-linolenoate]",0.09 µM,0.16 µM,IC50 [7]: 0.83 ± 0.59 µM
"CCCCCCCCCCC/C=C/CCCCC(=O)Nc1ccn([C@@H]2CO[C@H](CO)O2)c(=O)n1 [troxacitabine-petroselaidic amide, Troxacitabine N^4-petroselaidic acid amide]",0.02 µM,0.08 µM,IC50 [7]: 0.15 ± 0.07 µM
"CCCCCCCCCCC/C=C\CCCCC(=O)Nc1ccn([C@@H]2CO[C@H](CO)O2)c(=O)n1 [troxacitabine-petroselinic amide, Troxacitabine N^4-petroselinic acid amide]",–,–,cytotoxicity in words [3]: even more active than the other compounds; cytotoxicity in words [4]: even more active than the other compounds
"CCCCCCCC/C=C/CCCCCCCC(=O)Nc1ccn(C2COC(CO)O2)c(=O)n1 (stereo not drawn) [α-troxacitabine N4-elaidic acid amide, reference compound]",10 µM,–,–
